Measurements published in ChEMBL document CHEMBL1833935, “Metal-free cleavage efficiency toward DNA by a novel PNA analog-bridged macrocyclic polyamine” (Bioorg Med Chem Lett, 2011).
Values belong to the compound of their own block, whether it stands above or below them. Calls of active or inactive are those of the source. The calls are words filed in the database; no cut-off is given here. *1 amine or outer side, *2 acyl side, *3 side chain or, on linkers, in order; H or OH if unused. Where a SMILES comes first, the peptide text is derived from it. Bridges are numbered along the chain shown (N, C = ends). Roman numbers before positions name the chains, in order. The star is where a group is joined. Hexamethylenediamine = C(CCCN[*:2])CCN[*:1]; Cyclenylacetyl = O=C(CN1CCNCCNCCNCC1)*; X1 = O=c1[nH]cc(C*)c(=O)[nH]1

Tests used:
Type in all cases: nucleic-acid assay
Nucleic Acid [1] = experiment: Induction of Escherichia coli pUC19 DNA cleavage assessed as conversion of supercoiled plasmid DNA to nicked circular DNA at 10 uM after 48 hrs by agarose gel electrophoresis
Nucleic Acid [2] = experiment: Induction of Escherichia coli pUC19 DNA cleavage assessed as conversion of supercoiled plasmid DNA to nicked circular DNA at 20 uM after 48 hrs by agarose gel electrophoresis
Nucleic Acid [3] = experiment: Induction of [5'-32P]-end labeled single stranded 24 mer DNA cleavage assessed as formation of ladder of DNA fragment at 10 to 100 uM after 48 hrs at pH 7.0 and 37 degC by agarose gel electrophoresis-based phosphorimager analysis
Nucleic Acid [4] = experiment: Induction of [5'-32P]-end labeled single stranded 26 mer DNA cleavage assessed as formation of ladder of DNA fragment at 10 to 100 uM after 48 hrs at pH 7.0 and < = 25 degC by agarose gel electrophoresis-based phosphorimager analysis
Nucleic Acid [5] = experiment: Induction of [5'-32P]-end labeled single stranded 26 mer DNA cleavage assessed as formation of ladder of DNA fragments in HEPES buffer at 10 to 100 uM after 48 hrs at pH 7.0 and 37 degC by agarose gel electrophoresis-based phosphorimager analysis
Nucleic Acid [6] = experiment: Induction of supercoiled Escherichia coli pUC19 DNA cleavage in HEPES buffer at pH 7.0 after 48 hrs by agarose gel electrophoresis in presence of 0.1 M NaN3
Nucleic Acid [7] = experiment: Induction of supercoiled Escherichia coli pUC19 DNA cleavage in HEPES buffer at pH 7.0 after 48 hrs by agarose gel electrophoresis in presence of 0.1 M tert-butyl alcohol
Nucleic Acid [8] = experiment: Induction of [5'-32P]-end labeled single stranded 24 mer DNA cleavage assessed as formation of ladder of DNA fragment at 10 to 100 uM after 48 hrs at pH 7.0 and < = 25 degC by agarose gel electrophoresis-based phosphorimager analysis
Nucleic Acid [9] = experiment: Binding affinity to calf thymus DNA assessed as change in melting temperature at compound/DNA ratio of 1:5; conditions: Bos taurus
Nucleic Acid [10] = experiment: Binding affinity to calf thymus DNA assessed as change in melting temperature at compound/DNA ratio of 2:5; conditions: Bos taurus
Nucleic Acid [11] = experiment: Induction of supercoiled Escherichia coli pUC19 DNA cleavage in HEPES buffer at pH 7.0 after 48 hrs by agarose gel electrophoresis in presence of 0.1 M potassium iodide
Nucleic Acid [12] = experiment: Induction of Escherichia coli pUC19 DNA cleavage assessed as conversion of supercoiled plasmid DNA to linear DNA at 10 uM after 48 hrs by agarose gel electrophoresis
Nucleic Acid [13] = experiment: Induction of supercoiled Escherichia coli pUC19 DNA cleavage in HEPES buffer at pH 7.0 after 48 hrs by agarose gel electrophoresis in presence of 0.1 M DSMO
Nucleic Acid [14] = experiment: Induction of Escherichia coli pUC19 DNA cleavage assessed as conversion of supercoiled plasmid DNA to nicked circular DNA at 10 uM after 48 hrs by agarose gel electrophoresis in presence of 1 mM EDTA
Nucleic Acid [15] = experiment: Binding affinity to calf thymus DNA at compound/DNA ratio 2:5; conditions: Bos taurus

Activity (Nucleic Acid [1]): Active
SMILES: CC(C)(C)OC(=O)N1CCN(CC(=O)NCC(=O)N[C@@H](CSCc2c[nH]c(=O)[nH]c2=O)C(=O)NCC(=O)N[C@@H](CSCc2c[nH]c(=O)[nH]c2=O)C(=O)NCCCCCCNC(=O)[C@H](CSCc2c[nH]c(=O)[nH]c2=O)NC(=O)CNC(=O)[C@H](CSCc2c[nH]c(=O)[nH]c2=O)NC(=O)CNC(=O)CN2CCN(C(=O)OC(C)(C)C)CCN(C(=O)OC(C)(C)C)CCN(C(=O)OC(C)(C)C)CC2)CCN(C(=O)OC(C)(C)C)CCN(C(=O)OC(C)(C)C)CC1

Activity (Nucleic Acid [2]): inactive
SMILES: C1CNCCNCCNCCN1

Activity (Nucleic Acid [3]): Active
Activity (Nucleic Acid [4]): inactive
Activity (Nucleic Acid [5]): Active
Activity (Nucleic Acid [6]): inactive
Activity (Nucleic Acid [7]): Active
Activity (Nucleic Acid [8]): inactive
Activity (Nucleic Acid [1]): Active
ΔTm (Nucleic Acid [9]): 5.9 °C
ΔTm (Nucleic Acid [10]): 2.3 °C
Activity (Nucleic Acid [11]): Active
Activity (Nucleic Acid [12]): Active
Activity (Nucleic Acid [13]): inactive
Activity (Nucleic Acid [14]): Active
SMILES: O=C(CN1CCNCCNCCNCC1)NCC(=O)N[C@@H](CSCc1c[nH]c(=O)[nH]c1=O)C(=O)NCC(=O)N[C@@H](CSCc1c[nH]c(=O)[nH]c1=O)C(=O)NCCCCCCNC(=O)[C@H](CSCc1c[nH]c(=O)[nH]c1=O)NC(=O)CNC(=O)[C@H](CSCc1c[nH]c(=O)[nH]c1=O)NC(=O)CNC(=O)CN1CCNCCNCCNCC1 (I: Cyclenylacetyl-GC(X1)GC(X1) / II: Cyclenylacetyl-GC(X1)GC(X1); linker I:C-II:C via Hexamethylenediamine)

Activity (Nucleic Acid [1]): Active
ΔTm (Nucleic Acid [9]): 1.1 °C
Activity (Nucleic Acid [2]): inactive
Activity (Nucleic Acid [15]): Active
SMILES: COC(=O)[C@H](CSCc1c[nH]c(=O)[nH]c1=O)NC(=O)CNC(=O)[C@H](CSCc1c[nH]c(=O)[nH]c1=O)NC(=O)CNC(=O)CN1CCNCCNCCNCC1 (Cyclenylacetyl-GC(X1)GC(X1)-OMe)
